How the values were obtained:
Conditions in all cases: treatment: drug + dasatinib (fixed dose, not stated); 5 days
786-O [1] = experiment: minimum viability across doses, drug + dasatinib, relative to DMSO (fraction); higher = less growth inhibition
Procedure: (§1)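 Primary HTS combination arm: 8 RCC cell lines treated with 8 doses (up to 10 uM) of each library drug plus a fixed dose of dasatinib (dose not stated) for 5 days; viability read by CellTiter-Glo and normalised to DMSO. GI50 was fitted with XLfit, AUC is the area under the dose-response curve, and minimum viability is the lowest fraction of DMSO viability across doses.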

769-P [2] = experiment: as above
Procedure: as §1

ACHN [3] = experiment: as above
Procedure: as §1

CAKI-1 [4] = experiment: as above
Procedure: as §1

UO-31 [5] = experiment: as above
Procedure: as §1

A498 [6] = experiment: as above
Procedure: as §1

TK-10 [7] = experiment: as above
Procedure: as §1

SN12C [8] = experiment: as above
Procedure: as §1

786-O [9] = experiment: GI50 of drug in presence of dasatinib; higher = less potent
Procedure: as §1

769-P [10] = experiment: as above
Procedure: as §1

ACHN [11] = experiment: as above
Procedure: as §1

CAKI-1 [12] = experiment: as above
Procedure: as §1

UO-31 [13] = experiment: as above
Procedure: as §1

A498 [14] = experiment: as above
Procedure: as §1

TK-10 [15] = experiment: as above
Procedure: as §1

SN12C [16] = experiment: as above
Procedure: as §1

786-O [17] = experiment: AUC of dose-response viability curve, drug + dasatinib, normalised to DMSO (arbitrary (AUC of normalised viability)); higher = less growth inhibition
Procedure: as §1

769-P [18] = experiment: as above
Procedure: as §1

ACHN [19] = experiment: as above
Procedure: as §1

CAKI-1 [20] = experiment: as above
Procedure: as §1

UO-31 [21] = experiment: as above
Procedure: as §1

A498 [22] = experiment: as above
Procedure: as §1

TK-10 [23] = experiment: as above
Procedure: as §1

SN12C [24] = experiment: as above
Procedure: as §1

| GI50 of drug (786-O [9]) [nM] | GI50 of drug (ACHN [11]) [nM] | SMILES | minimum viability across doses (786-O [1]) | minimum viability across doses (769-P [2]) | minimum viability across doses (ACHN [3]) | minimum viability across doses (CAKI-1 [4]) | minimum viability across doses (UO-31 [5]) | minimum viability across doses (A498 [6]) | minimum viability across doses (TK-10 [7]) | minimum viability across doses (SN12C [8]) | GI50 of drug (769-P [10]) [nM] | GI50 of drug (CAKI-1 [12]) [nM] | GI50 of drug (UO-31 [13]) [nM] | GI50 of drug (A498 [14]) [nM] | GI50 of drug (TK-10 [15]) [nM] | GI50 of drug (SN12C [16]) [nM] | AUC of dose-response viability curve (786-O [17]) | AUC of dose-response viability curve (769-P [18]) | AUC of dose-response viability curve (ACHN [19]) | AUC of dose-response viability curve (CAKI-1 [20]) | AUC of dose-response viability curve (UO-31 [21]) | AUC of dose-response viability curve (A498 [22]) | AUC of dose-response viability curve (TK-10 [23]) | AUC of dose-response viability curve (SN12C [24]) |
| --- | --- | --- | --- | --- | --- | --- | --- | --- | --- | --- | --- | --- | --- | --- | --- | --- | --- | --- | --- | --- | --- | --- | --- | --- |
| 252 | 322 | COc1cccc2cc(-c3nc([C@H]4CC[C@H](C(=O)O)CC4)n4ncnc(N)c34)[nH]c12 [OSI-027] + Cc1nc(Nc2ncc(C(=O)Nc3c(C)cccc3Cl)s2)cc(N2CCN(CCO)CC2)n1 [dasatinib] | 0.0675 | 0.227 | 0.0877 | 0.0226 | 0.00633 | 0.139 | 0.152 | 0.15 | 2380 | 341 | 2240 | 4020 | 1100 | 1110 | 1.84 | 2.25 | 1.67 | 1.65 | 2.91 | 3.08 | 2.23 | 2.05 |
| < 3 | 23.1 | C#Cc1cccc(Nc2ncnc3cc(OCCOC)c(OCCO)cc23)c1.Cl [OSI-420 (Desmethyl Erlotinib)] + Cc1nc(Nc2ncc(C(=O)Nc3c(C)cccc3Cl)s2)cc(N2CCN(CCO)CC2)n1 [dasatinib] | 0.403 | 0.226 | 0.0775 | 0.11 | 0.325 | 0.761 | 0.379 | 0.442 | 510 | 1070 | 8630 | > 10000 | 2320 | > 10000 | 2.22 | 1.96 | 1.35 | 1.93 | 3.77 | 3.08 | 2.18 | 2.36 |
| 4480 | 2350 | O=C(Nc1ccc(OC(F)(F)F)cc1)c1sccc1NCc1ccnc2ccccc12 [OSI-930] + Cc1nc(Nc2ncc(C(=O)Nc3c(C)cccc3Cl)s2)cc(N2CCN(CCO)CC2)n1 [dasatinib] | 0.32 | 0.24 | 0.129 | 0.136 | 0.0216 | 0.685 | 0.395 | 0.174 | 3090 | 3170 | 4590 | > 10000 | 6520 | 6210 | 2.41 | 2.23 | 2.07 | 2.23 | 3.25 | 3.69 | 2.71 | 2.57 |
| 31.6 | 15.4 | COC1=CC(c2cc3ccccc3[nH]2)=N/C1=C\c1[nH]c(C)cc1C.CS(=O)(=O)O [Obatoclax mesylate (GX15-070)] + Cc1nc(Nc2ncc(C(=O)Nc3c(C)cccc3Cl)s2)cc(N2CCN(CCO)CC2)n1 [dasatinib] | 0.00545 | 0.0261 | 0.014 | 0.00534 | 0.00726 | 0.0102 | 0.151 | 0.00176 | 145 | 122 | 305 | 277 | 86.6 | 153 | 0.949 | 1.46 | 0.992 | 1.4 | 2.23 | 1.76 | 1.58 | 1.38 |

More lines, now with the values behind:

| SMILES | GI50 of drug (786-O [9]) [nM] | GI50 of drug (ACHN [11]) [nM] | minimum viability across doses (786-O [1]) | minimum viability across doses (769-P [2]) | minimum viability across doses (ACHN [3]) | minimum viability across doses (CAKI-1 [4]) | minimum viability across doses (UO-31 [5]) | minimum viability across doses (A498 [6]) | minimum viability across doses (TK-10 [7]) | minimum viability across doses (SN12C [8]) | GI50 of drug (769-P [10]) [nM] | GI50 of drug (CAKI-1 [12]) [nM] | GI50 of drug (UO-31 [13]) [nM] | GI50 of drug (A498 [14]) [nM] | GI50 of drug (TK-10 [15]) [nM] | GI50 of drug (SN12C [16]) [nM] | AUC of dose-response viability curve (786-O [17]) | AUC of dose-response viability curve (769-P [18]) | AUC of dose-response viability curve (ACHN [19]) | AUC of dose-response viability curve (CAKI-1 [20]) | AUC of dose-response viability curve (UO-31 [21]) | AUC of dose-response viability curve (A498 [22]) | AUC of dose-response viability curve (TK-10 [23]) | AUC of dose-response viability curve (SN12C [24]) |
| --- | --- | --- | --- | --- | --- | --- | --- | --- | --- | --- | --- | --- | --- | --- | --- | --- | --- | --- | --- | --- | --- | --- | --- | --- |
| C=CCc1cccc(/C=N/NC(=O)CN2CCN(Cc3ccccc3)CC2)c1O [PAC-1] + Cc1nc(Nc2ncc(C(=O)Nc3c(C)cccc3Cl)s2)cc(N2CCN(CCO)CC2)n1 [dasatinib] | 427 | 174 | 0.0103 | 0.0266 | 0.0168 | 0.0701 | 0.0141 | 0.169 | 0.0728 | 0.0519 | 1420 | 1350 | 2010 | 4840 | 764 | 3460 | 1.73 | 2.17 | 1.49 | 2.07 | 3.14 | 3.38 | 2.04 | 2.41 |
| CCCCCCCCCCCCc1ccc(S(=O)(=O)Nc2nncs2)cc1 [PHT-427] + Cc1nc(Nc2ncc(C(=O)Nc3c(C)cccc3Cl)s2)cc(N2CCN(CCO)CC2)n1 [dasatinib] | 4870 | > 10000 | 0.455 | 0.631 | 0.47 | 0.656 | 1.13 | 0.912 | 0.67 | 0.691 | > 10000 | > 10000 | > 10000 | > 10000 | > 10000 | > 10000 | 1.91 | 2.43 | 1.87 | 2.43 | 4.28 | 3.58 | 2.53 | 2.53 |
| Oc1cccc(-c2nc(N3CCOCC3)c3oc4ncccc4c3n2)c1 [PI-103] + Cc1nc(Nc2ncc(C(=O)Nc3c(C)cccc3Cl)s2)cc(N2CCN(CCO)CC2)n1 [dasatinib] | 73.1 | 31.4 | 0.0069 | 0.0372 | 0.0522 | 0.0121 | 0.00638 | 0.111 | 0.0871 | 0.116 | 461 | 322 | 115 | 386 | 389 | 156 | 1.43 | 1.84 | 1.2 | 1.63 | 1.49 | 2.06 | 1.86 | 1.57 |

Reference: the supplement of paper PMC8149375
